Series [1] deals with sigma (non-selective) (h). The series can be described thus: CEREP radioligand binding. Further details: species or system human. The note with it: radioligand [^3H]-DTG. The text has this:
Supplement Table1.docx, table 3: Supplementary Table S3. RG7774 binding to non-CB1R/CB2R receptors, ion channels, transporters, and enzymes (CEREP, Celle l’Evescault, France; http://www.cerep.fr). | column: % inhibition of control SB (n = 2)

Series [2] is described as follows: Plasma PK profile in mice. It counts as in vivo, C57BL/6J mice. The method, then: (§1) The plasma PK profile of RG7774 was assessed in adult male C57BL/6J mice and female Wistar rats (Charles River, Cologne, Germany) housed in a controlled environment (temperature, humidity, and 12 h light/dark cycle) with unrestricted access to food and water. The ocular PK profile of RG7774 was assessed in adult female […] rats (Charles River, Mattawan, MI, United States) housed in a controlled environment (21°C–22°C temperature, 40%–60%, humidity, and 12 h light/dark cycle) with unrestricted access to food and water and conducted according to local regulations by EyeCRO (Ann Arbor, MI, United States).
(§2) In the first study (animal permission #1857), mice received RG7774 as an intravenous (IV) bolus at 1 mg/kg (n = 6) or as an oral (PO) dose at 3 mg/kg (n = 5). In the second study (animal permission #2373), rats received RG7774 as an IV bolus at 10 mg/kg (n = 4) or via gavage at 30 mg/kg (n = 3). Blood samples were collected 0.1, 1, 3, 10, and 24 h post-dose under deep anesthesia with 3%–5% isoflurane in 100% O2. Samples were collected sublingually from mice, from the tail vein in rats or via heart puncture (terminal) into anticoagulant-coated polypropylene tubes and placed on ice. Plasma was prepared within 30 min of collection by centrifugation at 3,000 g for 5 min at 4°C and was immediately frozen. RG7774 concentrations in plasma were determined using LC-MS/MS. PK parameters were estimated by non-compartmental analysis of plasma data using Phoenix WinNonlin software (Certara, Princeton, NJ, United States).

In another series the test system is Mouse DAGL. The series can be described thus: Mouse DAGL assay (brain). The conditions noted are these: RG7774 10 µM. It counts as biochemical. The procedure:
Mouse brain or human HaCaT cells (CLS Cell Lines Service, GmbH, Eppelheim, Germany) were homogenized in 50 mM Tris-HCl (pH 7.4) using a glass potter, and homogenates were centrifuged at 4°C sequentially at 800 g (10 min) and 10,000 g (30 min). The final pellet (80–200 µg) was resuspended in 50 mM Tris-HCl (pH 7.4) containing 10 mM CaCl2 and incubated at 37°C for 30 min with sn-1[^14C]-stearoyl-2-arachidonoyl-glycerol (100 µM) (ARC, MO, USA). Reactions were stopped by adding chloroform/methanol (2:1, v/v), and the organic phase was dried and fractionated by thin-layer chromatography on silica gel, as previously reported. Levels of 1[^14C]-stearoyl acid radioactivity were determined by cutting the appropriate band from the gel and analyzing using a β-scintillation counter. Mouse cells were preincubated for 15 min with RG7774 (10 µM) and added to the incubation medium. Human cells were preincubated for 15 min with 8 different concentrations of RG7774 (0.1-500 µM) and added to the incubation medium. Control experiments were carried out in the presence of the selective DAGL inhibitor, D053 (10 µM).

The nature of series [3]: Brain:plasma ratio after oral administration (GLP toxicology studies, data on file). It counts as in vivo. The note with it: rat, rats, read-out: Mean brain:plasma ratios.
A further series has as its target T1, Human 12-LOX (Homo sapiens, UniProt P18054).
T1 construct: human platelet-derived 12-LOX; from tissue; host or cells: human platelets
The series can be described thus: Human 12-LOX assay. It is filed as biochemical. The note with it: RG7774 10 µM; read-out: Mean ± SEM % inhibition of control, Human 12-LOX. The procedure:
The inhibitory effects of different concentrations of RG7774 (0.1-500 µM) on the activities of human recombinant 5-LOX (Cayman Chemical Company #60402), 15-LOX (Cayman Chemical Company #10011263), and human platelet-derived 12-LOX were determined using the Biovision Lipoxygenase Activity Assay Kit (#BVN-K978-100). This kit converts the LOX substrate to an intermediate that reacted with the probe, generating a fluorescent product. The effect of RG7774 (preincubated for 15 min) at 10 µM on LOXs (5-LOX: 0.5 or 1.2 µg; 12-LOX: 20 µg; 15-LOX: 0.23 or 0.3 µg) was ascertained by adding the compounds directly to the incubation medium and the fluorescent signal, recorded at excitation/emission 500/536 nm at 30 sec intervals for 30-40 min, was directly proportional to LOX activity. […] The percentage of human 5-, 12-, and 15-LOX activity (control) was estimated from the amount of oxidized probe in the reaction using a standard curve.

A further series can be described thus: pKa. It counts as physicochemical. The conditions noted are these: basic. The text has this: TABLE 2 Physicochemical and ADMET profile for RG7774.
A further series has as its target T2, Human FAAH (Homo sapiens, UniProt O00519).
T2 construct: purchased Cayman Chemical Company
The series can be described thus: Human FAAH assay. It is filed as biochemical. The note with it: RG7774 10 µM; read-out: Mean ± SEM % inhibition of control, Human FAAH. The method, then:
Mouse brain was homogenized in 50 mM Tris-HCl (pH 7.4) using a glass potter, centrifuged at 1000 g for 10 min, and the pellet was discarded. The supernatant (50 µg) was incubated with [^14C]-AEA (10 µM) (ARC, MO, USA) at 37°C for 15 min (Tris-HCl, pH 9.0) and reactions were stopped with a 2:1 (v/v) mixture of chloroform/methanol. [^14C]-ethanolamine release in the aqueous phase was measured as previously reported. Mouse supernatants (50 µg) were preincubated with RG7774 (10 µM) for 15 min and added directly to the incubation medium. Purified human FAAH (1.7 µg; Cayman Chemical Company, MI, USA) was incubated with [^14C]-AEA (10 µM) (ARC, MO, USA) at 37°C for 15 min (pH 9.0), as previously described. […] for 15 min with 8 different concentrations of RG7774 (0.1-500 µM) and added directly to the incubation medium (250 µL). Control experiments was carried out in the presence of the FAAH inhibitor, URB-597 (100 nM).

Series [4] in a line: Plasma PK profile in rats. It counts as in vivo, Wistar rats. The note with it: mean (% CV). The method, then:
as §1, §2

[5] abbreviates: male, C57BL/6J, mouse, plasma, IV 1 mg/kg.
[6] abbreviates: male, C57BL/6J, mouse, plasma, PO 3 mg/kg.
[7] abbreviates: female, Wistar, rat, plasma, IV 10 mg/kg.
Where [8] appears, read: female, Wistar, rat, plasma, PO 30 mg/kg.

T2 sequence (O00519 whole entry): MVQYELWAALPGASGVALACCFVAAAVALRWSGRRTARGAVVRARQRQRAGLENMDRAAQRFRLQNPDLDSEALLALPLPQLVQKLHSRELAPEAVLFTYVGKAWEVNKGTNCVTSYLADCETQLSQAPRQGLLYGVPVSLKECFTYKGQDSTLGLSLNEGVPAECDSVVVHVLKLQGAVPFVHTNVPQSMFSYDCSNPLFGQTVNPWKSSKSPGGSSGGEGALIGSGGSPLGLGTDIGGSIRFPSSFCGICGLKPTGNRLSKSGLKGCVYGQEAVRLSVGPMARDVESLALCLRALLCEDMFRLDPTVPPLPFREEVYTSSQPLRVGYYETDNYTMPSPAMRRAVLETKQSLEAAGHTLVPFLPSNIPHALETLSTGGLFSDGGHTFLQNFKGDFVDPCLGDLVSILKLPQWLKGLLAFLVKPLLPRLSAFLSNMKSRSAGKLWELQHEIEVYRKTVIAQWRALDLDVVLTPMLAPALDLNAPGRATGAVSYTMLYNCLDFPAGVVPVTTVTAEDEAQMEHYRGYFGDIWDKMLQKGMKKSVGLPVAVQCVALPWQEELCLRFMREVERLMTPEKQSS
T1 sequence (P18054 whole entry): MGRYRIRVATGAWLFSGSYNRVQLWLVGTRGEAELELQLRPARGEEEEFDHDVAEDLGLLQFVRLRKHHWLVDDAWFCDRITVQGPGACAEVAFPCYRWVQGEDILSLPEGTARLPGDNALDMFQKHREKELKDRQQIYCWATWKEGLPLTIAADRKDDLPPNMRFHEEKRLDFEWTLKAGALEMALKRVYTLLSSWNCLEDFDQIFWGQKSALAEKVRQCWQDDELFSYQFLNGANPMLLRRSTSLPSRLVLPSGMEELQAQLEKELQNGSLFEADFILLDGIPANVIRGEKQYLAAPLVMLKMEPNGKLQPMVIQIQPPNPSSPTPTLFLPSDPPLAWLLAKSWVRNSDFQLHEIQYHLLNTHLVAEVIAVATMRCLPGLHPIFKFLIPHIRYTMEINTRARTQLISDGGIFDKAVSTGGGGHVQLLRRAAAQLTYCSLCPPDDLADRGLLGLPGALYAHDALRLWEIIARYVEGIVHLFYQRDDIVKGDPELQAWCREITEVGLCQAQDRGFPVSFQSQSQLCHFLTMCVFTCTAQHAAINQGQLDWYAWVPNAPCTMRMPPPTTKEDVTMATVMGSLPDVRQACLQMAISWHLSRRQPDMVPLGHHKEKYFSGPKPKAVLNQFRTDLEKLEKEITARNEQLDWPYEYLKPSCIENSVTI

With `Cn1nnnc1Cn1nnc2c(N3CC[C@H](O)C3)nc(C(C)(C)C)nc21` [RG7774, (S)-1-(5-tert-butyl-3-[(1-methyl-1H-tetrazol-5-yl)methyl]-3H-[1,2,3]triazolo[4,5-d]pyrimidin-7-yl)pyrrolidin-3-ol], the “% inhibition of control SB (n = 2)” value in series [1] is listed as “–8.2%”. Besides, the AUCinf/dose in series [2] (IV 1 mg/kg) is 1,230 ng h^–1 ml^–1 (mg kg^−1) ^−1; in series [2] (PO 3 mg/kg), 490 ng h^–1 ml^–1 (mg kg^−1) ^−1; in series [4] (IV 10 mg/kg), 6,000 (16) ng h^–1 ml^–1 (mg kg^−1) ^−1; in series [4] (PO 30 mg/kg), 4,670 (9.4) ng h^–1 ml^–1 (mg kg^−1) ^−1. Moreover, the Cmax/dose is on record as 487 ng ml^–1 (mg kg^–1) ^−1 in series [2] (PO 3 mg/kg) and 466 (13) ng ml^–1 (mg kg^–1) ^−1 in series [4] (PO 30 mg/kg). Further, the results for the clearance in series [2] (setting [5]) and in series [4] (setting [7]) were 13.2 mL/min/kg and 2.84 mL/min/kg, respectively. Besides, the half-life was 9.04 h in series [2] (setting [5]), 2.1 h in series [2] (setting [6]), 2.54 h in series [4] (setting [7]) and 3.18 h in series [4] (setting [8]). In addition, the Vd in series [2] (male, C57BL/6J, mouse, plasma, IV 1 mg/kg, read-out: Vss) stood at 3.7 L/kg; in series [4] (female, Wistar, rat, plasma, IV 10 mg/kg, read-out: Vss), 0.442 L/kg. Also, the time to peak (Tmax) was found to be 0.25 h in series [2] (setting [6]) and 1.25 h in series [4] (setting [8]). The bioavailability in series [2] (setting [6]) was 42.2%; in series [4] (setting [8]) it was 81.4%. Moreover, the “Mean ± SEM % inhibition of control, Mouse DAGL” value in the series on Mouse DAGL amounted to 17.0 ± 17.7%. Moreover, the Kp in series [3] lay within 0.0955 to 0.213. The inhibition at 10 µM was 1.5 ± 1.8% at Human 12-LOX and -5.2% at Human FAAH. The pKa in the series “pKa” turned out to be 2.63.

The record behind these values is publication PMC11272598, “RG7774 (Vicasinabin), an orally bioavailable cannabinoid receptor 2 (CB2R) agonist, decreases retinal vascular permeability, leukocyte adhesion, and ocular inflammation in animal models” (Frontiers in Pharmacology, 2024).
